Reference: US20230235077A1, “MATERIALS AND METHODS OF TREATING CANCER” (THE GENERAL HOSPITAL CORPORATION, priority 2020, published 2023)

Assays:
[1] = test system: D4M.3A melanoma cells; test: D4M.3A melanoma in mice: interval versus continuous mepazine with anti-PD-1 (Example 1); assay type: in vivo; settings: female C57BL/6 mice; mepazine 16 mg/kg i.p. daily on days 7-10 only versus continuously to day 19; with anti-PD-1 mAb 200 μg i.p. daily; FIG. 1
Procedure: Female C57BL/6 mice were implanted subcutaneously with 10^6 D4M.3A melanoma cells. Starting 7 days later (arrow), animals were treated with daily i.p. injections of 200 μg of anti-PD-1 mAbs (clone 29F.1A12) or isotype control mAb (rat IgG2a). Some animals in addition received daily i.p. injections of 16 mg/kg bodyweight of the allosteric MALT-1 inhibitor mepazine, either for the first 4 days (days 7-10) only, or continuously until the end of the experiment on day 19. Tumor size was measured using a caliper every 2-3 days. n=4/group. *=p<0.05 versus Ctrl.

[2] = test system: D4M.3A syngeneic tumors; test: D4M.3A syngeneic tumor efficacy study: (S)-mepazine IP ×3, ×7 or QD with anti-PD1 (Example 6); assay type: in vivo, C57BL/6 mice
Procedure: Male C57BL/6 mice were implanted subcutaneously with D4M.3A syngeneic tumors. The mice were dosed with (S)-mepazine IP and with anti-PD1 mouse clone 29F.1A12 dosed 3 times 200 μg/dose at days 0, 2, and 4 of a treatment cycle. A ×3 arm of mice were dosed at days 0, 1, and 3 of a 21 day treatment cycle with (S)-mepazine IP. A ×7 arm of mice were dosed at days 0-6 of a 21 day treatment cycle with (S)-mepazine IP. A QD arm of mice were dosed daily with (S)-mepazine IP. Tumor volume was measured each day. The results of the study are shown in FIGS. 2 and 3, for ×3 arm and ×7 arm, respectively.

[3] = test system: D4M.3A syngeneic tumors; test: D4M.3A syngeneic tumor efficacy study: (S)-mepazine PO 5 days on/5 days off or QD with anti-PD1 (Example 7); assay type: in vivo; settings: male C57BL/6 mice; (S)-mepazine PO 5 days on and 5 days off versus each day; with anti-PD1 200 μg at days 0, 2, 4; FIG. 4
Procedure: Male C57BL/6 mice were implanted subcutaneously with D4M.3A syngeneic tumors. The mice were dosed with (S)-mepazine PO and with anti-PD1 mouse clone 29F.1A12 dosed 3 times 200 μg/dose at days 0, 2, and 4 of a treatment cycle. The mice were dosed 5 days on with (S)-mepazine and 5 days off (a dose holiday) (5+5) or each day with (S)-mepazine (QD) PO. Tumor volume was measured each day.

SMILES	Tumor size, interval versus continuous treatment [1]	Tumor control of ×3 and ×7 arms versus QD dosing arm ([2]; (S)-mepazine IP with anti-PD1, up to 7 days after (S)-mepazine was dosed)	Tumor volume, activity against the tumor compared to anti-PD1 alone, ×3 arm ([2]; male C57BL/6 mice, (S)-mepazine IP on days 0, 1 and 3 of 21 day cycle, with anti-PD1 200 μg at days 0, 2, 4, FIG. 2)	Tumor volume, activity against the tumor compared to anti-PD1 alone, ×7 arm ([2]; male C57BL/6 mice, (S)-mepazine IP on days 0-6 of 21 day cycle, with anti-PD1 200 μg at days 0, 2, 4, FIG. 3)	Duration of efficacy for tumor control after (S)-mepazine was dosed ([2]; ×3 and ×7 arms, (S)-mepazine IP with anti-PD1, male C57BL/6 mice)	Tumor volume, 5+5 dosing versus QD dosing [3]
CN1CCCC(CN2c3ccccc3Sc3ccccc32)C1 (racemic) [mepazine]	at least as effective as continuous treatment					
CN1CCC[C@H](CN2c3ccccc3Sc3ccccc32)C1 [(S)-mepazine]		comparable to the QD dosing arm	improved activity against the tumor compared to anti-PD1 alone	improved activity against the tumor compared to anti-PD1 alone	up to 7 days	equivalent to a QD dosing schedule
